Assay results as given in a melting point compilation (Tetko et al.; mined from patent text by program, amines drawn as free bases though some values may be those of a salt).
Residues, ends and D or L forms follow the SMILES beside them. *: point of attachment. Boc = CC(C)(C)OC(=O)*; Bn = c1ccc(C*)cc1

Point of comparison: `COc1cc(C(=O)c2ncc3ccc(C(=O)O)cn23)ccc1N`, melting point 306 °C. Against it:
- CCC#CN1CCC(O)(Cc2ccccc2)CC1 — lower, 51 to 53 °C
- C=C(C(=O)c1ccc(OC)c(Cl)c1Cl)c1ccccc1 — lower, 83.5 to 86 °C
- CNC(=O)[C@@H]1C[C@@H](OC(C)(C)C)CN1S(=O)(=O)c1ccc(Cl)c(COc2cccc3c(-n4ccnc4)cc(C)nc23)c1Cl — lower, 84 °C
- Nc1nc(Nc2cccc(C(F)(F)F)c2)nc(OCC(F)(F)F)n1 — lower, 133 to 135 °C
- COc1ccc(Cn2ncc3c4c(cnc32)CN(S(=O)(=O)c2ccccc2)CC4)cc1 — lower, 136 to 138 °C
- Cc1ccccc1N1CCN(Cc2ccc(Nc3ccnc4cc(C(F)(F)F)ccc34)cc2)CC1 — lower, 208 to 210 °C
- CN1CCNCC(NC(=O)c2n[nH]c3ccccc23)C1 (stereo unspecified) — lower, 163 to 166 °C
- Cc1cc(C)c2c(c1)C=C(/C=C/C=O)CO2 — lower, 76 to 78 °C
- COc1ccccc1N1CCN(CC(O)COc2ccccc2C=C=O)CC1 (stereo unspecified) — lower, 116 to 118 °C
- Cc1oc(C2(C)CCCCC2)nc1C(=O)O — lower, 128 to 129 °C
- CC(=O)NCc1ccc(CN2CCN(c3ccc(F)cc3N)CC2)cc1 — lower, 139 to 140 °C
- COc1ccc(CNc2nc(C#N)ncc2C(=O)c2cc(OC)c(OC)c(OC)c2)cc1Cl — lower, 140 to 143 °C
- CC(=O)Nc1cc2c3c(c1)c(=O)c(C(=O)O)cn3C(C)CC2 (stereo unspecified) — higher, > 310 °C
- COC(=O)[C@H]1Cc2cc(SC)ccc2C(=O)[C@H](C)S1 (relative stereo) — lower, 105 to 106 °C
- CCCCCCCCOc1ccc(-c2ncc(Br)cn2)cn1 — lower, 99 to 101 °C
- Cc1nn(C)c(-n2ccc3cc(Cl)cnc32)c1/C=C/C(=O)NS(=O)(=O)NCC1CC1 — lower, 209 to 210 °C
- CC(C)OC(=NC(=O)c1ccc(F)cc1)N1Cc2ccccc2-c2ccccc2C1 — lower, 90 to 93 °C
- COc1ccc2cc(C3=CC4CCC(C3)N4)ccc2c1 (stereo unspecified) — lower, 138 °C
- CCCc1c(SCCCOc2ccc3c(=O)cc(CCC(=O)O)oc3c2CCC)ccc(C(C)=O)c1O — lower, 122 to 124 °C
- O=C(O)C(CCc1ccccc1)CC1(C(=O)Nc2cccnc2)CCCC1 (stereo unspecified) — lower, 80 to 85 °C
- COc1cccc(CN2CCC3(CCc4c3n(C)c3ccccc43)CC2)c1 — lower, 100 to 101 °C
- Cc1ncnc(O)c1C — lower, 120 to 121 °C
- CCN(CC)c1ccc(-c2cc(-c3ccc(C(=O)O)cc3)ccc2O)cc1C(F)(F)F — lower, 195 °C
- CCCCCCCSC[C@H](N[C@@H](C)C(=O)O)C(=O)OCC — lower, 124 to 126 °C
- CCC1(O)C(C)=CC(=O)N1c1ccccc1 (stereo unspecified) — lower, 97 to 100 °C
- CC1(C)OC[C@H](Cn2cc3nccc(I)c3n2)O1 — lower, 85 to 87 °C
- COC(=O)c1ccc(-c2ccccc2CBr)cc1 — lower, 80 to 81 °C
- Cn1cc(C(=O)O)c(=O)c2oc3ccccc3c(=O)c21 — higher, 308 to 312 °C
- Cc1cc2c(N=C3SCC4Cc5sccc5CN34)cccc2cn1 (racemic) — lower, 159 °C
- Cc1nnc2n1-c1sc(CC(=O)O)cc1C(c1ccccc1Cl)=NC2C (stereo unspecified) — lower, 222 to 225 °C
- CCOC(=O)CC(=O)c1cc(F)c(Br)cc1F — lower, 51 to 53 °C
- CNc1nc(-c2cccc(NC(=O)c3ccc(N4CCCC4)nc3)c2)c2cc(OC)c(OC)cc2n1 — lower, 239 to 241 °C
- Cc1nn(CC(=O)COCc2ccccc2)c(-c2ccc(F)cc2)c1-c1ccc2c(c1)NC(=O)CO2 — lower, 154 to 155 °C
- CNC(=S)NCCCCc1nccs1 — lower, 130 to 132 °C
- NN1CCNC1=C[N+](=O)[O-] — lower, 159 to 160 °C
- Cc1cccc(C(C)(C)C)c1-n1sc(=O)n(Cc2ccccc2)c1=O — lower, 89.8 °C
- O=C(NCC1Cc2ccc3c(c2O1)CCC3)OCc1ccccc1 (stereo unspecified) — lower, 99 to 101 °C
- O=C(NCCCOc1ccncc1)c1cccnc1 — lower, 117 to 119 °C
- COC(=O)/C=C/c1ccc(OCc2oc(-c3ccc(C(F)(F)F)cc3)nc2C)cc1C — lower, 124 to 126 °C
- c1ccc2cc(-c3scc4c3OCCO4)ccc2c1 — lower, 208 to 211 °C
- O=C(COc1cccnc1)NCCCCC1CCN(C(c2ccccc2)c2ccccc2)CC1 — lower, 103 to 105 °C
- O=C1c2cccnc2CCCC1Br (stereo unspecified) — lower, 193 to 195 °C
- NNc1nc(C(F)(F)F)c(Cl)s1 — lower, 136 to 137 °C
- Cc1nc2sccn2c1C1=NNC(=O)NC1 — lower, 293 to 295 °C
- CSc1ccc(-c2nn(Cc3ccc(Cl)cc3Cl)c(=O)cc2-c2ccc(Cl)cc2)cc1 — lower, 154 to 155 °C
- Cn1c(=O)cc(CCc2ccc(Cl)s2)c2cc(C(=O)c3ccc(Cl)cc3)ccc21 — lower, 151 °C
- Oc1ccc(Cl)cc1C(O)c1ccc(Cl)cc1 (stereo unspecified) — lower, 106 to 107 °C
- COC(=O)CN1CN(c2ccccc2)C2(CCN(Cc3cccc4ccccc34)CC2)C1=O — lower, 122 to 135 °C
- O=c1[nH]c2c([nH]1)-c1ccncc1CC2 — higher, > 310 °C
- CC(C)CC(NC(=O)C(Cc1ccc(OCc2ccccc2)cc1)NC(=O)OC(C)(C)C)C(=O)O (stereo unspecified) (Boc-Tyr(Bn)-Leu-OH; configuration not given here) — lower, 90 to 94 °C
